Test results taken from publication PMC8847695 (Frontiers in Chemistry, 2022).

Tests used:
[1] = molecular target: AAK1 (Homo sapiens, UniProt Q2M2I8); experiment: ITC validation, AAK1; assay type: binding; conditions: for Kd / KD: ITC; for LE: LE=1/N⋅1.4⋅−log(KD); for LE / LELP: AAK1; for LELP: LELP= logP/LE
Description: The protein was buffer exchanged into 50 mM HEPES, 100 mM NaCl, 2 mM MgCl2, and 1 mM TCEP at pH 7.4. The protein was concentrated to 50–100 µM, and DMSO was added to a final concentration of 5% (^V/V). The fragments were dissolved in DMSO to yield a 100 mM stock solution, which was further diluted with buffer to yield a 5 mM solution also containing 5% (^V/V) DMSO. A MicroCal iTC200 (Malvern) instrument was used with the measuring cell set to 25°C, while the cooling jacket was set to 15°C. After a 120 s initial delay following temperature equilibration, a first injection with 0.5 µl over 2 s was done. […] The measurement was conducted using a needle stirring speed of 1,000 rpm and a reference heat rate of 10 μcal/s. Experiments were aborted, when the measuring cell was unable to reach a heat rate greater than 9 μcal/s during equilibration. Affinities were averaged from duplicates.

[2] = GSH stability assay (HPLC); assay type: physicochemical; conditions: t1/2 > 20 h defined as sufficiently stable
Description: A 500 µM fragment solution in PBS buffer pH 7.4, 10% acetonitrile and 200 µM indoprofen as an internal standard, was added to 10 mM GSH solution in a 1:2 ratio. The reaction temperature was 40°C. […] The reaction of fragments with GSH was determined by measuring the decreasing area under the curve (AUC) of the compound relative to the internal standard indoprofen. The gradient was chosen depending on the polarity of fragments to be either one of the following: […]

[3] = molecular target: T1, CAMK1G (1-320) (Homo sapiens, UniProt Q96NX5); experiment: STD-NMR fragment screening, CAMK1G; assay type: binding; conditions: 1 = hit, 0 = no hit
T1 construct: made in house; host or cells: E. coli BL21 (DE3) pLysS
T1 sequence (Q96NX5 1-320): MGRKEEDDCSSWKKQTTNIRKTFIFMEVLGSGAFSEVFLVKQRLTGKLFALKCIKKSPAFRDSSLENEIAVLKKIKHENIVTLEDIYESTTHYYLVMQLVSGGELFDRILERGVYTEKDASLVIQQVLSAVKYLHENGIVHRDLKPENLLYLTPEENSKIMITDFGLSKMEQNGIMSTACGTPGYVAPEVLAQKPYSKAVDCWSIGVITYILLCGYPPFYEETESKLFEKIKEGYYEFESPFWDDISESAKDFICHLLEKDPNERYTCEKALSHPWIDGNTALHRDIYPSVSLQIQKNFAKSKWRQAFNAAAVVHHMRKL
Outline: (§1)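 Saturation-transfer difference NMR was run at 25°C and 700 MHz with 20 µM protein, two fragments at 1 mM each, and 10% DMSO-d6. On-resonance saturation was at 0.5–0.6 ppm and off-resonance at 40 ppm, with a 3 s Gaussian-pulse train. A hit required a difference-spectrum peak at least three times the local noise.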

[4] = molecular target: T2, DOT1L (1-416) (Homo sapiens, UniProt Q8TEK3); experiment: STD-NMR fragment screening, DOT1L; assay type: binding; conditions: 1 = hit, 0 = no hit
T2 construct: made in house; host or cells: E. coli BL21 (DE3) pLysS
T2 sequence (Q8TEK3 1-416): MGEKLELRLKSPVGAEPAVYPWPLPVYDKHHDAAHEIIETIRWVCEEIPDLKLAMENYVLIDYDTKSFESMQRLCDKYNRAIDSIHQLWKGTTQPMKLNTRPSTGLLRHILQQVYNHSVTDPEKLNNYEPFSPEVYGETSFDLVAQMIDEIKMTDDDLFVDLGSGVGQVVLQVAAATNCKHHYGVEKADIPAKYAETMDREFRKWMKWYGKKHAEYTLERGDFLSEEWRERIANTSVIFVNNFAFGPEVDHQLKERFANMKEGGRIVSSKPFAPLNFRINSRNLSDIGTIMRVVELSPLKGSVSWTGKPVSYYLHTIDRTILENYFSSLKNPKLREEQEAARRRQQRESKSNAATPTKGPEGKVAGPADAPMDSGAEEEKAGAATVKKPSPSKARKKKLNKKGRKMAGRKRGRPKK
Outline: as §1

[5] = molecular target: T3, IDO1 (1-435) (Homo sapiens, UniProt P14902); experiment: STD-NMR fragment screening, IDO1; assay type: binding; conditions: 1 = hit, 0 = no hit
T3 construct: His-tag of pET15b with TEV site (thrombin site replaced) (cleaved yes); made in house; host or cells: E. coli Rosetta 2 (DE3) pLysS
T3 sequence (P14902 whole entry, the tested form may be a part): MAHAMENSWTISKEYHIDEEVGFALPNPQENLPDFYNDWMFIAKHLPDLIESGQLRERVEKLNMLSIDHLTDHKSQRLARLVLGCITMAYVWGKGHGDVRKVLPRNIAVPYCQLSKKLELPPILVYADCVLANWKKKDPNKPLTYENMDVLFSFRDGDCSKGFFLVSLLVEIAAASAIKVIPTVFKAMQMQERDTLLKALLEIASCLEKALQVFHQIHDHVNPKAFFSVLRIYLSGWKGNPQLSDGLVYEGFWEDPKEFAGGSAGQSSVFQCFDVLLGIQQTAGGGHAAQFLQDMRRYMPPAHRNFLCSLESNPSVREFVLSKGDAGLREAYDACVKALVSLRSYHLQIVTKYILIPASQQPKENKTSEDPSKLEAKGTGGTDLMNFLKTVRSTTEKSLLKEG
Outline: as §1

[6] = molecular target: AAK1 (121-471) (Homo sapiens, UniProt Q2M2I8); experiment: STD-NMR fragment screening, AAK1; assay type: binding; conditions: 1 = hit, 0 = no hit
AAK1 (121-471), sequence (Q2M2I8 46-315 limits assumed): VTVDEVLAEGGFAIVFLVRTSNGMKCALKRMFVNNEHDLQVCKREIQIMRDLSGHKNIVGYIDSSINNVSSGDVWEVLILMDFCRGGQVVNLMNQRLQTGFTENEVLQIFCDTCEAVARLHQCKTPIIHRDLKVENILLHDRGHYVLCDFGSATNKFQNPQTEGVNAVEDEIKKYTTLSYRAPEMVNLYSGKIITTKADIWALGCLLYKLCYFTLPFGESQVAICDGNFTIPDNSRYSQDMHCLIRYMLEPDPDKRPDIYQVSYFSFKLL
Outline: as §1

[7] = 25°C, 5% DMSO, pH 7.4, duplicates

AAK1, sequence (Q2M2I8 46-315 limits assumed): as above

Row | Kd [1, 7] | LE [1] | LELP [1] | stability with GSH (in words) [2] | KD [1, 7] | Kd ([1]; SAR analogs of 9595) | CAMK1G (STD-NMR hit flag) [3] | DOT1L (STD-NMR hit flag) [4] | IDO1 (STD-NMR hit flag) [5] | AAK1 (STD-NMR hit flag) [6] | SMILES
1 | 90 µM | 0.57 | 4.03 |  |  |  |  |  |  |  | Nc1c(Cl)ccc(O)c1Cl [Fragment 0471]
2 | 180 µM | 0.48 | 1.90 | sufficiently stable |  |  |  |  |  |  | Oc1nc2nc(Cl)ccc2[nH]1 [Fragment 0474]
3 |  |  |  | sufficiently stable |  |  |  |  |  |  | Nc1c(Cl)ccc2nonc12 [Fragment 1217]
4 | 50 µM |  |  |  |  |  |  |  |  |  | Clc1ccnc2cc[nH]c12 [Fragment A1]
5 | 60 µM |  |  |  |  |  |  |  |  |  | Clc1nccc2cc[nH]c12 [Fragment A2]
6 |  |  |  |  | completely abolished the affinity | > 1000 µM |  |  |  |  | c1cc2cc[nH]c2cn1 [Fragment A3]
7 | 302 µM |  |  |  |  |  |  |  |  |  | Clc1ncnc2ccoc12 [Fragment A4]
8 |  |  |  |  | completely abolished the affinity |  |  |  |  |  | Clc1ncnc2ccsc12 [Fragment A5]
9 | 170 µM |  |  |  |  |  |  |  |  |  | Clc1cccc2cc[nH]c12 [Fragment A6]
10 |  |  |  |  |  |  | 0 | 0 | 0 | 0 | Nc1ccc(Br)c(C(=O)O)n1 [Fragment B02297395]
11 |  |  |  |  |  |  | 0 | 0 | 0 | 0 | COc1ncc(Br)cc1C(=O)O [Fragment B02297396]
12 |  |  |  |  |  |  | 0 | 0 | 0 | 0 | Fc1cc(C2CNCCN2)c(Cl)cc1Cl (stereo not shown) [Fragment B02297397]
13 |  |  |  |  |  |  | 0 | 0 | 0 | 0 | O=C(O)c1sccc1Cl [Fragment B02297398]
14 |  |  |  |  |  |  | 0 | 0 | 0 | 0 | OB(O)c1ccncc1Br [Fragment B02297399]
15 |  |  |  |  |  |  | 0 | 0 | 0 | 1 | Oc1cccc(O)c1Br [Fragment B02297401]
16 |  |  |  |  |  |  | 0 | 0 | 0 | 1 | Cc1cnc(C)c(Cl)n1 [Fragment B02297402]
17 |  |  |  |  |  |  | 0 | 0 | 0 | 0 | O=C(O)c1cnccc1Br [Fragment B02297403]
18 |  |  |  |  |  |  | 1 | 1 | 0 | 1 | Cc1c(Cl)cnc(N)c1Cl [Fragment B02297405]
19 |  |  |  |  |  |  | 0 | 0 | 0 | 1 | Cc1cc(N)c(Br)cn1 [Fragment B02297406]
20 |  |  |  |  |  |  | 0 | 1 | 0 | 1 | COC(=O)c1cc(N)c(Cl)s1 [Fragment B02297407]
21 |  |  |  |  |  |  | 0 | 0 | 0 | 0 | Brc1ccc(C2CNCCN2)s1 (stereo not shown) [Fragment B02297408]
22 |  |  |  |  |  |  | 0 | 0 | 0 | 1 | Nc1ccc2[nH]cnc2c1Br [Fragment B02297409]

Row | Kd [1, 7] | LE [1] | LELP [1] | stability with GSH (in words) [2] | KD [1, 7] | Kd ([1]; SAR analogs of 9595) | CAMK1G (STD-NMR hit flag) [3] | DOT1L (STD-NMR hit flag) [4] | IDO1 (STD-NMR hit flag) [5] | AAK1 (STD-NMR hit flag) [6] | SMILES
23 |  |  |  |  |  |  | 0 | 0 | 0 | 1 | OC1CCN(c2cc(Cl)ncn2)CC1 [Fragment B02297410]
24 |  |  |  |  |  |  | 0 | 0 | 1 | 0 | O=C(O)c1c(Cl)cncc1Cl [Fragment B02297411]
25 |  |  |  |  |  |  | 0 | 0 | 0 | 0 | Nc1nc(Cl)c(NC=O)c(Cl)n1 [Fragment B02297412]
26 |  |  |  |  |  |  | 0 | 0 | 1 | 1 | O=C(O)c1cc(Br)c(O)cc1O [Fragment B02297413]
27 |  |  |  |  |  |  | 0 | 0 | 0 | 0 | Clc1nsnc1N1CCOCC1 [Fragment B02297414]
28 |  |  |  |  |  |  | 0 | 0 | 0 | 0 | Cn1cc(Br)c(N)n1 [Fragment B02297415]
29 |  |  |  |  |  |  | 0 | 0 | 0 | 0 | CC(=O)Nc1ccc(Cl)c(C(=O)O)n1 [Fragment B02297416]
30 |  |  |  |  |  |  | 0 | 0 | 0 | 0 | O=C(O)C(O)c1cccc(Cl)c1 (stereo not shown) [Fragment B02297417]
31 |  |  |  |  |  |  | 0 | 0 | 0 | 0 | O=C(O)c1ncc(Cl)cc1Cl [Fragment B02297418]
32 |  |  |  |  |  |  | 0 | 1 | 1 | 1 | Cc1[nH]c(=O)[nH]c(=O)c1I [Fragment B02297420]
33 |  |  |  |  |  |  | 0 | 0 | 0 | 0 | [O-][n+]1ccc(Cl)cc1 [Fragment B02297421]
34 |  |  |  |  |  |  | 1 | 0 | 1 | 1 | COc1ncc(C(=O)O)cc1Cl [Fragment B02297423]
35 |  |  |  |  |  |  | 1 | 0 | 0 | 1 | Nc1cnccc1Br [Fragment B02297424]
36 |  |  |  |  |  |  | 0 | 0 | 1 | 0 | O=c1ncc(Cl)c[nH]1 [Fragment B02297425]
37 |  |  |  |  |  |  | 0 | 0 | 0 | 0 | O=C(O)c1ccncc1Br [Fragment B02297426]
38 |  |  |  |  |  |  | 0 | 0 | 1 | 0 | O=c1cc(O)c(Cl)c[nH]1 [Fragment B02297427]
39 |  |  |  |  |  |  | 0 | 0 | 0 | 0 | Cc1ccc(C(=O)O)c(Cl)n1 [Fragment B02297428]
40 |  |  |  |  |  |  | 0 | 0 | 1 | 0 | COc1ncc(Cl)cc1C(=O)O [Fragment B02297429]
41 |  |  |  |  |  |  | 0 | 0 | 0 | 0 | Nc1ncc(C(=O)O)cc1Br [Fragment B02297655]
42 |  |  |  |  |  |  | 0 | 0 | 0 | 0 | CC(=O)CS(=O)(=O)c1cc(Cl)ccc1F [Fragment B02297765]
43 |  |  |  |  |  |  | 0 | 0 | 0 | 0 | Cn1ncc(I)c1C(=O)NN [Fragment B02297766]

Row | SMILES | Kd [1, 7] | LE [1] | LELP [1] | stability with GSH (in words) [2] | KD [1, 7] | Kd ([1]; SAR analogs of 9595) | CAMK1G (STD-NMR hit flag) [3] | DOT1L (STD-NMR hit flag) [4] | IDO1 (STD-NMR hit flag) [5] | AAK1 (STD-NMR hit flag) [6]
44 | O=C(c1ccc(Cl)cc1)N1CCOCC1 [Fragment B02297400] |  |  |  |  |  |  | 0 | 0 | 0 | 0
45 | CN1CCN(c2ccc(Br)cn2)CC1 [Fragment B02297404] |  |  |  |  |  |  | 0 | 0 | 0 | 0
46 | Brc1cnc(N2CCNCC2)nc1 [Fragment B02297422] |  |  |  |  |  |  | 1 | 0 | 0 | 1
